Reference: PubChem BioAssay (NCI)
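Here, GI50 denotes the concentration required for 50% inhibition of growth. At the TGI there is no net growth.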

Legend:
Test in all cases: inhibition of tumour cell growth, NCI panel, 384-well format
[1] = system: 786-0 renal
[2] = system: A498 renal
[3] = system: A549 NSCLC
[4] = system: ACHN renal
[5] = system: BT-549 breast
[6] = system: CAKI-1 renal
[7] = system: CCRF-CEM leukemia
[8] = system: COLO 205 colon
[9] = system: DU-145 prostate
[10] = system: EKVX NSCLC
[11] = system: HCC-2998 colon
[12] = system: HCT-15 colon
[13] = system: HL-60(TB) leukemia
[14] = system: HOP-62 NSCLC
[15] = system: HOP-92 NSCLC
[16] = system: HS 578T breast
[17] = system: HT29 colon
[18] = system: IGROV1 ovarian
[19] = system: K-562 leukemia
[20] = system: KM12 colon
[21] = system: LOX IMVI melanoma
[22] = system: M14 melanoma
[23] = system: MALME-3M melanoma
[24] = system: MCF7 breast
[25] = system: MDA-MB-231 breast
[26] = system: MDA-MB-435 melanoma
[27] = system: MDA-MB-468 breast
[28] = system: MOLT-4 leukemia
[29] = system: NCI-H226 lung

Which results are given for `CN1C(=O)C(C)(C)Oc2c(-c3cn(C)c(=O)c4[nH]ccc34)cc(S(C)(=O)=O)cc21`?
GI50 [1]: 355 nM; TGI [1]: 7360 nM; GI50 [2]: 381 nM; TGI [2]: 11500 nM; GI50 [3]: 389 nM; TGI [3]: 7080 nM; GI50 [4]: 1480 nM; TGI [4]: 11000 nM; GI50 [5]: 164 nM; TGI [5]: 785 nM; GI50 [6]: 229 nM; TGI [6]: 2150 nM; GI50 [7]: 174 nM; TGI [7]: 1390 nM; GI50 [8]: 228 nM; TGI [8]: 1390 nM; GI50 [9]: 1290 nM; TGI [9]: 22900 nM; GI50 [10]: 1510 nM; TGI [10]: 11100 nM; GI50 [11]: 150 nM; TGI [11]: 468 nM; GI50 [12]: 340 nM; TGI [12]: 2270 nM; GI50 [13]: 48.5 nM; TGI [13]: 184 nM; GI50 [14]: 287 nM; TGI [14]: 2270 nM; GI50 [15]: 149 nM; TGI [15]: 1850 nM; GI50 [16]: 65.2 nM; TGI [16]: 349 nM; GI50 [17]: 196 nM; TGI [17]: 7840 nM; GI50 [18]: 329 nM; TGI [18]: 1390 nM; GI50 [19]: 268 nM; TGI [19]: 5650 nM; GI50 [20]: 330 nM; TGI [20]: 1910 nM; GI50 [21]: 157 nM; TGI [21]: 327 nM; GI50 [22]: 364 nM; TGI [22]: 16300 nM; GI50 [23]: 115 nM; TGI [23]: 731 nM; GI50 [24]: 84.7 nM; TGI [24]: 949 nM; GI50 [25]: 168 nM; TGI [25]: 2260 nM; GI50 [26]: 868 nM; TGI [26]: 12700 nM; GI50 [27]: 114 nM; TGI [27]: 439 nM; GI50 [28]: 220 nM; TGI [28]: 1010 nM; GI50 [29]: 223 nM
